Data reported in ChEMBL document CHEMBL4425114, “Development of Novel Alkoxyisoxazoles as Sigma-1 Receptor Antagonists with Antinociceptive Efficacy” (J Med Chem, 2016).
Active and inactive are the calls of the source. The rule behind the calls is not given here.

Columns and labels:
[1] = Half life in Kun Ming mouse plasma at 40 mg/kg, po by LC-MS/MS analysis; assay type: ADME, organism-based
[2] = molecular target: T1, Sodium-dependent dopamine transporter (Homo sapiens, UniProt Q01959)
Description: Displacement of [3H]-WIN35428 from human DAT expressed in HEK293 cells measured after 30 mins

[3] = AUMC (0 to 8 hrs) in Kun Ming mouse brain at 40 mg/kg, po by LC-MS/MS analysis; assay type: ADME, organism-based; details: in vivo
[4] = AUC (0 to infinity) in Kun Ming mouse plasma at 40 mg/kg, po by LC-MS/MS analysis; assay type: ADME, organism-based; set-up: dose 40 mg/kg, route oral, time infinity
[5] = Elimination rate constant in Kun Ming mouse plasma at 40 mg/kg, po by LC-MS/MS analysis; assay type: ADME, organism-based
[6] = AUMC (0 to infinity) in Kun Ming mouse plasma at 40 mg/kg, po by LC-MS/MS analysis; assay type: ADME, organism-based; details: in vivo
[7] = molecular target: T2, Sigma intracellular receptor 2 (Rattus norvegicus, UniProt Q5U3Y7); assay: Displacement of [3H]DTG from rat brain sigma2 receptor by PDSP assay
T2 sequence (Q5U3Y7 whole entry): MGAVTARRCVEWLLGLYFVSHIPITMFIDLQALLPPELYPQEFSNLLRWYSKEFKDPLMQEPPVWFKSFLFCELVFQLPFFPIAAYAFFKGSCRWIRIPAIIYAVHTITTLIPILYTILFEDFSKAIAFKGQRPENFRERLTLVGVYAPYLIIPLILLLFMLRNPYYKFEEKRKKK

[8] = Mean residence time in Kun Ming mouse brain at 40 mg/kg, po by LC-MS/MS analysis; assay type: ADME, organism-based
[9] = Cmax in Kun Ming mouse plasma at 40 mg/kg, po by LC-MS/MS analysis; assay type: ADME, organism-based; set-up: dose 40 mg/kg, route oral
[10] = Tmax in Kun Ming mouse plasma at 40 mg/kg, po by LC-MS/MS analysis; assay type: ADME, organism-based
[11] = AUMC (0 to 8 hrs) in Kun Ming mouse plasma at 40 mg/kg, po by LC-MS/MS analysis; assay type: ADME, organism-based; details: in vivo
[12] = Mean residence time in Kun Ming mouse plasma at 40 mg/kg, po by LC-MS/MS analysis; assay type: ADME, organism-based
[13] = molecular target: T3, Sodium-dependent serotonin transporter (Homo sapiens, UniProt P31645); assay: biochemical; assay type: cell-based, HEK293
Target sequence in this assay (P31645 whole entry): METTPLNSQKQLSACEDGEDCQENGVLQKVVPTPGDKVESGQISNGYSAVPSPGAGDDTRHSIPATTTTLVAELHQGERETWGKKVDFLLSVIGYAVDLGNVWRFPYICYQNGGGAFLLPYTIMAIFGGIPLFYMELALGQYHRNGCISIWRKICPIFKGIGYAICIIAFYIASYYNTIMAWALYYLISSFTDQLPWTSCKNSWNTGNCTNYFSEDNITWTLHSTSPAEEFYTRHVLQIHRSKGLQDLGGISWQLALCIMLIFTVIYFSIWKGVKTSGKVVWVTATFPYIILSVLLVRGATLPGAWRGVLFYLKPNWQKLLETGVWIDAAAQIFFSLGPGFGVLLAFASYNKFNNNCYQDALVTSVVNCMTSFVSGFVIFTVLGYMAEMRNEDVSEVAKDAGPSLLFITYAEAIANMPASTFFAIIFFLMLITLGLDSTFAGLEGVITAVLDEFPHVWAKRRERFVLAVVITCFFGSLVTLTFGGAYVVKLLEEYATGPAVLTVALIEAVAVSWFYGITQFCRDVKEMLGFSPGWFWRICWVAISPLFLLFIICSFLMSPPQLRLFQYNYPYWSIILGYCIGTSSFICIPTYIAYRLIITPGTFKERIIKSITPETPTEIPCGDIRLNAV
Description: Displacement of [3H]citalopram from human SERT expressed in HEK293 cells measured after 30 mins

[14] = Cmax in Kun Ming mouse brain at 40 mg/kg, po by LC-MS/MS analysis; assay type: ADME, organism-based; set-up: dose 40 mg/kg, route oral
[15] = AUMC (0 to infinity) in Kun Ming mouse brain at 40 mg/kg, po by LC-MS/MS analysis; assay type: ADME, organism-based; details: in vivo
[16] = Toxicity in Kun Ming mouse assessed as decrease in rotarod latency at 40 and 80 mg/kg, ip measured after 60 to 120 mins by rotarod test relative to vehicle-treated control; assay type: organism-based; details: in vivo
[17] = molecular target: Sigma non-opioid intracellular receptor 1 (Rattus norvegicus) (UniProt Q9R0C9); assay: Displacement of [3H]-pentazocine from rat brain sigma1 receptor at 10 uM by PDSP assay
[18] = molecular target: Sigma non-opioid intracellular receptor 1 (Rattus norvegicus, UniProt Q9R0C9); assay: Displacement of [3H]-pentazocine from rat brain sigma1 receptor by PDSP assay
[19] = system: Mus musculus; assay: Antinociceptive activity in Kun Ming mouse assessed as reduction in paw licking and flinching time at 40 mg/kg, ip administered 15 mins prior to formalin challenge measured after 11 to 45 mins post formalin dosing relative to vehicle-treated control; assay type: functional, organism-based
[20] = system: Mus musculus; assay: Antinociceptive activity in Kun Ming mouse assessed as reduction in paw licking and flinching time at 80 mg/kg, ip administered 15 mins prior to formalin challenge measured up to 45 mins post formalin dosing relative to vehicle-treated control; assay type: functional, organism-based
[21] = Ratio of Cmax in brain to plasma of Kun Ming mouse at 40 mg/kg, po; assay type: ADME, organism-based
[22] = Permeability of the compound after 18 hrs by PAMPA assay; assay type: ADME; details: read-out: permeability
[23] = Tmax in Kun Ming mouse brain at 40 mg/kg, po by LC-MS/MS analysis; assay type: ADME, organism-based
[24] = molecular target: T1, Sodium-dependent dopamine transporter; assay: Displacement of [3H]-WIN35428 from human DAT expressed in HEK293 cells at 10 uM measured after 30 mins; assay type: cell-based
[25] = molecular target: Sodium-dependent noradrenaline transporter (Homo sapiens, UniProt P23975); assay: Displacement of [3H]nisoxetine from human NET expressed in HEK293 cells measured after 30 mins; assay type: cell-based
[26] = molecular target: Sigma non-opioid intracellular receptor 1 (Cavia porcellus) (UniProt Q60492); assay: Binding affinity to sigma1 receptor form guinea pig brain membrane in presence of phenytoin […]
[27] = Ratio of AUC (0 to 8 hrs) in brain to plasma of Kun Ming mouse at 40 mg/kg, po; assay type: ADME, organism-based; details: read-out: Ratio AUC
[28] = AUC (0 to 8 hrs) in Kun Ming mouse brain at 40 mg/kg, po by LC-MS/MS analysis; assay type: ADME, organism-based; set-up: time < 8 hr, dose 40 mg/kg, route oral; details: in vivo
[29] = molecular target: T3, Sodium-dependent serotonin transporter; details: HEK293, at 10 µM
Target sequence in this assay (P31645 whole entry, looked up): as the sequence (P31645 whole entry) above
Description: Displacement of [3H]citalopram from human SERT expressed in HEK293 cells at 10 uM measured after 30 mins

[30] = AUC (0 to infinity) in Kun Ming mouse brain at 40 mg/kg, po by LC-MS/MS analysis; assay type: ADME, organism-based; set-up: dose 40 mg/kg, route oral, time infinity; details: in vivo
[31] = Elimination rate constant in Kun Ming mouse brain at 40 mg/kg, po by LC-MS/MS analysis; assay type: ADME, organism-based
[32] = system: Mus musculus; assay: Antinociceptive activity in Kun Ming mouse assessed as reduction in paw licking and flinching time at 40 mg/kg, ip administered 15 mins prior to formalin challenge measured after 0 to 10 mins post formalin dosing relative to vehicle-treated control; assay type: functional, organism-based
[33] = AUC (0 to 8 hrs) in Kun Ming mouse plasma at 40 mg/kg, po by LC-MS/MS analysis; assay type: ADME, organism-based; set-up: time < 8 hr, dose 40 mg/kg, route oral
[34] = Half life in Kun Ming mouse brain at 40 mg/kg, po by LC-MS/MS analysis; assay type: ADME, organism-based
[35] = Ratio of AUC (0 to infinity) in brain to plasma of Kun Ming mouse at 40 mg/kg, po; assay type: ADME, organism-based; details: read-out: Ratio AUC

T1 sequence (Q01959 whole entry): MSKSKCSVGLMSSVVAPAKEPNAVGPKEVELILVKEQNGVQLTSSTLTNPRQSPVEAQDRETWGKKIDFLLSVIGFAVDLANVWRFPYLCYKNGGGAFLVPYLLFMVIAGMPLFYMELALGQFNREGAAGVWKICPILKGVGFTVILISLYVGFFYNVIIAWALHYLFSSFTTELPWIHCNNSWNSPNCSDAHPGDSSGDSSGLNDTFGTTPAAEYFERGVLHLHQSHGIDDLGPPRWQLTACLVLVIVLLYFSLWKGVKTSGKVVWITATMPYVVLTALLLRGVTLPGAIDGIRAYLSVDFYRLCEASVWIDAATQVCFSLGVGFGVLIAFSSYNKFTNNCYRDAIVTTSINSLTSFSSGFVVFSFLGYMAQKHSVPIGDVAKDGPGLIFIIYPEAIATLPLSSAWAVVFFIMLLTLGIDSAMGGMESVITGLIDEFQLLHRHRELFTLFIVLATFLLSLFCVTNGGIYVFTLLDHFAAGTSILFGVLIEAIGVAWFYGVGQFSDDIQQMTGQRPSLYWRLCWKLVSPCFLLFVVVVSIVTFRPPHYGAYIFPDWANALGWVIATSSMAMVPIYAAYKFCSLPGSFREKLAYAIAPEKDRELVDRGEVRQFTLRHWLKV
Chain of Sigma non-opioid intracellular receptor 1 (Rattus norvegicus) (Q9R0C9 whole entry): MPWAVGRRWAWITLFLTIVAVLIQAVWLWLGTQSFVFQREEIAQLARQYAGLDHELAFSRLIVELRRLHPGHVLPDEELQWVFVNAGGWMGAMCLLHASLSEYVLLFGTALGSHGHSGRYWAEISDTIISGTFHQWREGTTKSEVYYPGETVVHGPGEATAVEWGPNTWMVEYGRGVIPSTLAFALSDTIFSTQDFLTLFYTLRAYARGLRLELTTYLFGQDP
Chain of Sigma non-opioid intracellular receptor 1 (Q9R0C9 whole entry): as above
Chain of Sigma non-opioid intracellular receptor 1 (Cavia porcellus) (Q60492 whole entry): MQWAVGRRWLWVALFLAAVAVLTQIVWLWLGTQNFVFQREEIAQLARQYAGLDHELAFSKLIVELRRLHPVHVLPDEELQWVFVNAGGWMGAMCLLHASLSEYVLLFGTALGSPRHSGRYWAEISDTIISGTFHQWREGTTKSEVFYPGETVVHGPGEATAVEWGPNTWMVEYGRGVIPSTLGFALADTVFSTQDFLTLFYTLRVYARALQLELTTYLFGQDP
Chain of Sodium-dependent noradrenaline transporter (P23975 whole entry): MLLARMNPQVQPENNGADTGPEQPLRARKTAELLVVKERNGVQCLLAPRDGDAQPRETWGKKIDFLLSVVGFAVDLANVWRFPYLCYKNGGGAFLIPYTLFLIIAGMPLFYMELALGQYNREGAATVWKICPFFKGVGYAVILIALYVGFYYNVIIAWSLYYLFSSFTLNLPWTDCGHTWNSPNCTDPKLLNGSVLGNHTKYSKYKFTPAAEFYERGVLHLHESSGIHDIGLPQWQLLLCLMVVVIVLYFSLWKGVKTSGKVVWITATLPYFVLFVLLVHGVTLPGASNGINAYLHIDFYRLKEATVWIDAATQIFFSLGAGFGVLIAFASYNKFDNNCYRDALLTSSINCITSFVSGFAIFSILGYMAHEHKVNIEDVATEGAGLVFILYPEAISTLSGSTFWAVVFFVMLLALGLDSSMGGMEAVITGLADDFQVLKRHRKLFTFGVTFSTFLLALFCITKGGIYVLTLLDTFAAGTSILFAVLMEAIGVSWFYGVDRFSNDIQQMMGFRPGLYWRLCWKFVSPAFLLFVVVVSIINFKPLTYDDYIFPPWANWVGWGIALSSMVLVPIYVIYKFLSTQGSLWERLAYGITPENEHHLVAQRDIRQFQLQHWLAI

## CN(CCOc1cc(COc2ccccc2)on1)CC1CC1.Cl
[1]
  half-life: 2.64 h
[2]
  Ki: > 10000 nM
[3]
  AUMC: 578 hr.hr.ng/g
[4]
  AUC(0-inf): 113 ng·h/mL
[5]
  k el: 7.31e-05 s⁻¹
[6]
  AUMC: 157 hr.hr.ng/ml
[7]
  Ki: 225 nM
[8]
  MRT: 2.32 h
[9]
  Cmax: 193 ng/mL
[10]
  Tmax: 0.167 h
[11]
  AUMC: 91.5 hr.hr.ng/ml
[12]
  MRT: 1.39 h
[13]
  Ki: > 10000 nM
[14]
  Cmax: 395 ng/g
[15]
  AUMC: 935 hr.hr.ng/g
[16]
  Activity: Non-Toxic
[17]
  inhibition: > 50%
[18]
  Ki: 0.8 nM
[19]
  Activity: Active
[20]
  Activity: Active
[21]
  Kp: 2
[22]
  Papp at 18 h: 2 to 4 ×10⁻⁶ cm/s
[23]
  Tmax: 0.167 h
[24]
  inhibition: < 50%
[25]
  Ki: > 10000 nM
[26]
  Activity: inactive
[27]
  Kp: 3.6
[28]
  AUC: 373 ng·h/g
[29]
  inhibition: < 50%
[30]
  AUC: 403 ng·h/g
[31]
  k el: 7.67e-05 s⁻¹
[32]
  Activity: inactive
[33]
  AUC(0-t) at 8 h: 108 ng·h/mL
[34]
  half-life: 2.52 h
[35]
  Kp: 3.6
